According to PubChem BioAssay (NCI):
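Cells were grown in 96-well plates and exposed to each compound for 48 hours at five concentrations; endpoints were interpolated linearly between bracketing concentrations, or set to the highest concentration if not reached. GI50 is the concentration that inhibits growth by half. At the TGI there is no net growth.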

Experiments:
Assay in all cases: inhibition of tumour cell growth, NCI panel, 48 h
SF-268 CNS = system: SF-268 CNS
RPMI-8226 leukemia = system: RPMI-8226 leukemia
UACC-257 melanoma = system: UACC-257 melanoma
OVCAR-3 ovarian = system: OVCAR-3 ovarian
SNB-19 CNS = system: SNB-19 CNS
COLO 205 colon = system: COLO 205 colon
SF-295 CNS = system: SF-295 CNS
MCF7 breast = system: MCF7 breast
A498 renal = system: A498 renal
IGROV1 ovarian = system: IGROV1 ovarian
HT29 colon = system: HT29 colon
UACC-62 melanoma = system: UACC-62 melanoma
SR leukemia = system: SR leukemia
KM12 colon = system: KM12 colon
U251 CNS = system: U251 CNS
NCI-H460 lung = system: NCI-H460 lung
M14 melanoma = system: M14 melanoma
ACHN renal = system: ACHN renal
UO-31 renal = system: UO-31 renal
NCI-H226 lung = system: NCI-H226 lung
K-562 leukemia = system: K-562 leukemia
RXF 393 renal = system: RXF 393 renal
EKVX NSCLC = system: EKVX NSCLC
MDA-MB-435 = system: MDA-MB-435
MDA-MB-231 breast = system: MDA-MB-231 breast
TK-10 renal = system: TK-10 renal
A549 NSCLC = system: A549 NSCLC
OVCAR-8 ovarian = system: OVCAR-8 ovarian
CAKI-1 renal = system: CAKI-1 renal
HS 578T breast = system: HS 578T breast
SK-MEL-2 melanoma = system: SK-MEL-2 melanoma
NCI-H522 lung = system: NCI-H522 lung
SK-MEL-5 melanoma = system: SK-MEL-5 melanoma
786-0 renal = system: 786-0 renal
PC-3 prostate = system: PC-3 prostate
BT-549 breast = system: BT-549 breast
HOP-62 NSCLC = system: HOP-62 NSCLC
LOX IMVI melanoma = system: LOX IMVI melanoma
HCT-15 colon = system: HCT-15 colon
CCRF-CEM leukemia = system: CCRF-CEM leukemia
SW-620 colon = system: SW-620 colon
MOLT-4 leukemia = system: MOLT-4 leukemia

**Q.** What does the source list for `COC(=O)c1oc2c(O)c(OC)c(Br)cc2c1C`?
**A.** GI50 (SF-268 CNS): 31 µM; TGI (SF-268 CNS): > 100 µM; GI50 (RPMI-8226 leukemia): 20.9 µM; TGI (RPMI-8226 leukemia): 47.8 µM; GI50 (UACC-257 melanoma): 24.5 µM; TGI (UACC-257 melanoma): 99.6 µM; GI50 (OVCAR-3 ovarian): 23.6 µM; TGI (OVCAR-3 ovarian): 43.5 µM; GI50 (SNB-19 CNS): 22.9 µM; TGI (SNB-19 CNS): 46.1 µM; GI50 (COLO 205 colon): 22.5 µM; TGI (COLO 205 colon): 48.3 µM; GI50 (SF-295 CNS): 31 µM; TGI (SF-295 CNS): 70.2 µM; GI50 (MCF7 breast): 27.1 µM; TGI (MCF7 breast): > 100 µM; GI50 (A498 renal): 32.7 µM; TGI (A498 renal): 65.8 µM; GI50 (IGROV1 ovarian): 32.7 µM; TGI (IGROV1 ovarian): 91.6 µM; GI50 (HT29 colon): 15.7 µM; TGI (HT29 colon): 30.4 µM; GI50 (UACC-62 melanoma): 14.7 µM; TGI (UACC-62 melanoma): 30.7 µM; GI50 (SR leukemia): 0.354 µM; TGI (SR leukemia): 18.2 µM; GI50 (KM12 colon): 21.2 µM; TGI (KM12 colon): 47.6 µM; GI50 (U251 CNS): 18.2 µM; TGI (U251 CNS): 33.1 µM; GI50 (NCI-H460 lung): 64 µM; TGI (NCI-H460 lung): > 100 µM; GI50 (M14 melanoma): 22.6 µM; TGI (M14 melanoma): 42.6 µM; GI50 (ACHN renal): 20.2 µM; TGI (ACHN renal): 36.2 µM; GI50 (UO-31 renal): 46.9 µM; TGI (UO-31 renal): > 100 µM; GI50 (NCI-H226 lung): 29 µM; TGI (NCI-H226 lung): 50.2 µM; GI50 (K-562 leukemia): 34.4 µM; TGI (K-562 leukemia): > 100 µM; GI50 (RXF 393 renal): 28.6 µM; TGI (RXF 393 renal): 67.1 µM; GI50 (EKVX NSCLC): 23.8 µM; TGI (EKVX NSCLC): 49.1 µM; GI50 (MDA-MB-435): 29 µM; TGI (MDA-MB-435): 65.4 µM; GI50 (MDA-MB-231 breast): 16.5 µM; TGI (MDA-MB-231 breast): 37 µM; GI50 (TK-10 renal): 18.3 µM; TGI (TK-10 renal): 40 µM; GI50 (A549 NSCLC): 25 µM; TGI (A549 NSCLC): 74.1 µM; GI50 (OVCAR-8 ovarian): 28.7 µM; TGI (OVCAR-8 ovarian): 91.7 µM; GI50 (CAKI-1 renal): 43.4 µM; TGI (CAKI-1 renal): > 100 µM; GI50 (HS 578T breast): 33.7 µM; TGI (HS 578T breast): > 100 µM; GI50 (SK-MEL-2 melanoma): 56.2 µM; TGI (SK-MEL-2 melanoma): > 100 µM; GI50 (NCI-H522 lung): 37.4 µM; TGI (NCI-H522 lung): > 100 µM; GI50 (SK-MEL-5 melanoma): 22.2 µM; TGI (SK-MEL-5 melanoma): 43.5 µM; GI50 (786-0 renal): 18.2 µM; TGI (786-0 renal): 32.4 µM; GI50 (PC-3 prostate): 21.2 µM; TGI (PC-3 prostate): 39.7 µM; GI50 (BT-549 breast): 17.7 µM; TGI (BT-549 breast): 42.6 µM; GI50 (HOP-62 NSCLC): 23.3 µM; TGI (HOP-62 NSCLC): 51.4 µM; GI50 (LOX IMVI melanoma): 23.5 µM; TGI (LOX IMVI melanoma): 39.2 µM; GI50 (HCT-15 colon): 17.6 µM; TGI (HCT-15 colon): 35.5 µM; GI50 (CCRF-CEM leukemia): 25 µM; TGI (CCRF-CEM leukemia): 67.6 µM; GI50 (SW-620 colon): 30.5 µM; TGI (SW-620 colon): 82.5 µM; GI50 (MOLT-4 leukemia): 22.4 µM; TGI (MOLT-4 leukemia): 43 µM
